Measurements from patent US20080039629A1, “Benzothniazole compositions and their use as ubiquition ligation inhibitors” (RIGEL PHARMACEUTICALS, INC., priority 2003, published 2008).

Molecular target: T1, E1 and His-E2 Ubch10 (Homo sapiens, UniProt P22314)
T1 construct: host or cells: E. coli (His-Ubch10); Sf9 insect cells (E1)
T1 sequence (P22314 1-1058): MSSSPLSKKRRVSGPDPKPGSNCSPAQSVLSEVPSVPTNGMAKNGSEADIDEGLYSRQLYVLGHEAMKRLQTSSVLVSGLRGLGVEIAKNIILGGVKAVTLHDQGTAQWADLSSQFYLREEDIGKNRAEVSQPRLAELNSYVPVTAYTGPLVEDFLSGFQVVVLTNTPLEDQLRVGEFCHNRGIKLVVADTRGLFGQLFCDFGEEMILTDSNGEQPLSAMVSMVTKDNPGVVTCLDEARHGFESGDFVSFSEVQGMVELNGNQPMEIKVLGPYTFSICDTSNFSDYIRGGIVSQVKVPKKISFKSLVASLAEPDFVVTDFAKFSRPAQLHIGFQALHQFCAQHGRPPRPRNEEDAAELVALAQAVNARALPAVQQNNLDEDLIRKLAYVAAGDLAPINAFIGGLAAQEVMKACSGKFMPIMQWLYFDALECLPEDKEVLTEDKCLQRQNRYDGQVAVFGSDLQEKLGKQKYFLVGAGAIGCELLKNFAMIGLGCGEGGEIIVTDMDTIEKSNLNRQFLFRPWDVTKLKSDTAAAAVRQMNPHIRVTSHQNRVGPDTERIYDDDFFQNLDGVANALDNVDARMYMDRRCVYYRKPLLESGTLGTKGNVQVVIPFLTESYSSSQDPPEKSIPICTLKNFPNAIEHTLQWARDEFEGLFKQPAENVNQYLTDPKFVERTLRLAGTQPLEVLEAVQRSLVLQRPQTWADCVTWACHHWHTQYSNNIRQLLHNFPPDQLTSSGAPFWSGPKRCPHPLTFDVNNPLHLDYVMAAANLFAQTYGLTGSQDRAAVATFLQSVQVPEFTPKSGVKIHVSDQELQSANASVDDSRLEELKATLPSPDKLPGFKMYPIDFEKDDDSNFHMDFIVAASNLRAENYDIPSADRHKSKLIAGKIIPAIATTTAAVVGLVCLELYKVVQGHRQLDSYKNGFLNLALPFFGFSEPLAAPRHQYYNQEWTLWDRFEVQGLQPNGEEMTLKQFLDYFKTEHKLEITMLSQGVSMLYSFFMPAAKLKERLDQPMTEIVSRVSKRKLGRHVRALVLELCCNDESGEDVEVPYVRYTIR
Assay: E1 to E2 transfer assay, His-E2 Ubch10, 1.0 μM ATP (low ATP)
Type: biochemical
Settings: Table 5, ATP inhibition properties; inhibition measured using IC50 values
Text: Biological assays for determining the transfer of ubiquitin from the E1 activating agent to the E2 conjugating agent are described in U.S. patent application Ser. Nos. 09/542,497 and 09/826,312 as well as in the PCT Application WO 01/75145, all of which are incorporated by reference in their entirety. The following assay example illustrates one way by which the ubiquitin ligase inhibitory activity of the compounds of the invention can be assayed. This assay example is not meant to limit in any way the use of the compounds of the invention as ubiquitin ligase inhibitors.
The attachment of a ubiquitin moiety to the E2 conjugating agent was assayed using Flag-ubiquitin that was purified from E. coli, E2 Ubch10 that was purified as a His-Ubch10 from E. coli, and E1 that was purified from Sf9 insect cells (Affiniti Research Products, Exeter, U.K.). The wells of a Nickel-substrate 96-well plate (Pierce Chemical) were blocked with 100 μl of 1% casein/phosphate buffered saline (PBS) for 1 hour at room temperature. The blocked Nickel-substrate plate was then washed three times with 200 μl of PBST (0.1% Tween-20 in PBS). Subsequently, Flag-ubiquitin reaction solution was added to each well so that the final concentration was 62.5 mM Tris pH 7.5, […], 0.75 mM DTT, 1.0 μM ATP (low ATP), and 100 ng Flag-ubiquitin. The final reaction solution volume was fixed to 80 μl with Millipore-filtered water. To this was added the following: a ubiquitin agent inhibitor in 10 μl of DMSO, 10 μl of E1 and His-E2 Ubch10 in 20 mM Tris buffer, pH 7.5, and 5% glycerol so that there was 10 ng/well of E1 and 20 ng/well of His-E2 Ubch10. The reaction was then allowed to proceed at room temperature for 1 hour.
After 1 hour, the wells were washed three times with 200 μl of PBST and the amount of E2-ubiquitin complex was measured. For measuring the amount of the E2-ubiquitin complex, 100 μl of Mouse anti-flag diluted 1:10,000 (Sigma Aldrich Fluka Chemicals, St. Louis, Mo.) and anti-mouse HRP diluted 1:15,000 (Jackson Immunoresearch labs, West Grove, Pa.) in PBST were added to each well and allowed to incubate at room temperature for another hour. The wells were then washed three times with 200 μl of PBST and 100 μl of luminol substrate (⅕ dilution) was added. The luminescence of each well was then measured using a […] to calculate the amount of E2-ubiquitin complex. This procedure was repeated using His-E2 Ubch5C instead of His-E2 Ubch10.
The table below illustrates the inhibitory properties of the pharmaceutical compostions of the invention comprising the compounds listed in the table using the assays described above. Inhibition was measured using IC50 values.

Structure (SMILES) | UBC10
COc1ccc2nc(NC(=O)C3CCNCC3)sc2c1 [Compound 44, N-(6-methoxybenzo[d]thiazol-2-yl)piperidine-4-carboxamide] | −− (−− indicates marginal or no inhibition detected with this assay)
CCCC1CCC(C(=O)Nc2nc3ccc(OC)cc3s2)CC1 (centres unmarked) [Compound 45, N-(6-methoxybenzo[d]thiazol-2-yl)-4-propylcyclohexanecarboxamide] | ++ (++ indicates inhibition at 50 μM or or less)
COc1ccc2nc(NC(=O)C3CCC3)sc2c1 [Compound 46, N-(6-methoxybenzo[d]thiazol-2-yl)cyclobutanecarboxamide] | ++ (++ indicates inhibition at 50 μM or or less)
COc1ccc2nc(NC(=O)C(C)C)sc2c1 [Compound 47, N-(6-methoxybenzo[d]thiazol-2-yl)isobutyramide] | −− (−− indicates marginal or no inhibition detected with this assay)
COc1ccc2nc(NC(=O)C(C)(C)C)sc2c1 [Compound 48, N-(6-methoxybenzo[d]thiazol-2-yl)pivalamide] | ++ (++ indicates inhibition at 50 μM or or less)
COc1ccc2nc(NC(=O)c3cccs3)sc2c1 [Compound 49, N-(6-methoxybenzo[d]thiazol-2-yl)thiophene-2-carboxamide] | ++ (++ indicates inhibition at 50 μM or or less)
COc1ccc2nc(NC(=O)c3ccc([N+](=O)[O-])s3)sc2c1 [Compound 50, N-(6-methoxybenzo[d]thiazol-2-yl)-5-nitrothiophene-2-carboxamide] | −− (−− indicates marginal or no inhibition detected with this assay)
COc1ccc2nc(N3C(=O)c4ccccc4C3=O)sc2c1 [Compound 51, 2-(6-methoxybenzo[d]thiazol-2-yl)isoindoline-1,3-dione] | ++ (++ indicates inhibition at 50 μM or or less)
COc1ccc2nc(NC(=O)c3ccncc3)sc2c1 [Compound 52, N-(6-methoxybenzo[d]thiazol-2-yl)isonicotinamide] | −− (−− indicates marginal or no inhibition detected with this assay)
COc1ccc2nc(NC(=O)c3cccnc3)sc2c1 [Compound 53, N-(6-methoxybenzo[d]thiazol-2-yl)nicotinamide] | ++ (++ indicates inhibition at 50 μM or or less)
COc1ccc2nc(NC(=O)c3cccc([N+](=O)[O-])c3)sc2c1 [Compound 54, N-(6-methoxybenzo[d]thiazol-2-yl)-3-nitrobenzamide] | −− (−− indicates marginal or no inhibition detected with this assay)
COc1ccc2nc(NC(=O)c3cccc4ccccc34)sc2c1 [Compound 55, N-(6-methoxybenzo[d]thiazol-2-yl)-1-naphthamide] | −− (−− indicates marginal or no inhibition detected with this assay)
COc1ccc2nc(NC(=O)c3cccc(C)c3)sc2c1 [Compound 56, N-(6-methoxybenzo[d]thiazol-2-yl)-3-methylbenzamide] | ++ (++ indicates inhibition at 50 μM or or less)
COc1ccc2nc(NC(=O)c3ccc(F)cc3)sc2c1 [Compound 57, 4-fluoro-N-(6-methoxybenzo[d]thiazol-2-yl)benzamide] | ++ (++ indicates inhibition at 50 μM or or less)
COc1ccc2nc(NC(=O)c3cccc(F)c3)sc2c1 [Compound 58, 3-fluoro-N-(6-methoxybenzo[d]thiazol-2-yl)benzamide] | ++ (++ indicates inhibition at 50 μM or or less)
COc1ccc2nc(NC(=O)c3ccccc3F)sc2c1 [Compound 59, 2-fluoro-N-(6-methoxybenzo[d]thiazol-2-yl)benzamide] | ++ (++ indicates inhibition at 50 μM or or less)
COc1cccc(C(=O)Nc2nc3ccc(OC)cc3s2)c1 [Compound 60, 3-methoxy-N-(6-methoxybenzo[d]thiazol-2-yl)benzamide] | ++ (++ indicates inhibition at 50 μM or or less)
COc1ccc2nc(NC(=O)c3ccccc3OC)sc2c1 [Compound 61, 2-methoxy-N-(6-methoxybenzo[d]thiazol-2-yl)benzamide] | −− (−− indicates marginal or no inhibition detected with this assay)
Cc1ccc(C(=O)Nc2nc3ccc(Cl)cc3s2)cc1 [Compound 70, N-(6-chlorobenzo[d]thiazol-2-yl)-4-methylbenzamide] | −− (−− indicates marginal or no inhibition detected with this assay)
Cc1ccc(C(=O)Nc2nc3c(C)cccc3s2)cc1 [Compound 71, 4-methyl-N-(4-methylbenzo[d]thiazol-2-yl)benzamide] | −− (−− indicates marginal or no inhibition detected with this assay)
CC(=O)Nc1ccc2nc(NC(=O)c3ccc(C)cc3)sc2c1 [Compound 72, N-(6-acetamidobenzo[d]thiazol-2-yl)-4-methylbenzamide] | −− (−− indicates marginal or no inhibition detected with this assay)
Cc1ccc(C(=O)Nc2nc3ccc(S(N)(=O)=O)cc3s2)cc1 [Compound 73, N-[6-(aminosulfonyl)-1,3-benzothiazol-2-yl]-4-methylbenzamide] | −− (−− indicates marginal or no inhibition detected with this assay)
COC(=O)c1ccc(C(=O)Nc2nc3ccc(N)cc3s2)cc1 [Compound 74, methyl 4-((6-aminobenzo[d]thiazol-2-yl)carbamoyl)benzoate] | −− (−− indicates marginal or no inhibition detected with this assay)
Cc1ccc(C(=O)Nc2nc3ccc(OC(F)(F)F)cc3s2)cc1 [Compound 75, 4-methyl-N-(6-(trifluoromethoxy)benzo[d]thiazol-2-yl)benzamide] | −− (−− indicates marginal or no inhibition detected with this assay)
Cc1ccc(C(=O)Nc2nc3c(C)cccc3s2)cc1C [Compound 76, 3,4-dimethyl-N-(4-methylbenzo[d]thiazol-2-yl)benzamide] | −− (−− indicates marginal or no inhibition detected with this assay)
CCc1ccc(C(=O)Nc2nc3ccc(OC)cc3s2)cc1 [Compound 77, 4-ethyl-N-(6-methyoxybenzo[d]thiazol-2-yl)benzamide] | ++ (++ indicates inhibition at 50 μM or or less)
CCc1ccc(C(=O)Nc2nc3ccc(C)cc3s2)cc1 [Compound 78, 4-ethyl-N-(6-methylbenzo[d]thiazol-2-yl)benzamide] | −− (−− indicates marginal or no inhibition detected with this assay)
Cc1ccc(C(=O)Nc2nc3ccc([N+](=O)[O-])cc3s2)cc1C [Compound 79, 3,4-dimethyl-N-(6-nitrobenzo[d]thiazol-2-yl)benzamide] | ++ (++ indicates inhibition at 50 μM or or less)
Cc1ccc2nc(NC(=O)c3ccc(C)c(C)c3)sc2c1 [Compound 80, 3,4-dimethyl-N-(6-methylbenzo[d]thiazol-2-yl)benzamide] | −− (−− indicates marginal or no inhibition detected with this assay)
